In patent publication US6787525B1, “Glyceryl nucleotides, method for the production thereof and their use” (priority 1998, dated 2004):

Legend:
HIV = assay: In-vitro anti-HIV effect: inhibition of HIV-induced cell death of T4 lymphocytes (CEM-SS), XTT; format: cell-based; conditions: 6 days
Method: (§1) T4 lymphocytes (cell line: CEM-SS), which are killed by HIV within two replication cycles, are used as the test system. That which is detected is the inhibition of cell death. The compound according to the invention is dissolved in DMSO and this solution is diluted with cell culture medium in the ratio 1:100. […] All the cell cultures are examined spectrophotometrically in order to quantify production of formazan. In addition to this, individual cultures are examined microscopically in order to confirm the anti-HIV activity. The virus-infected cells which have been treated with the compound according to the invention are compared with the standard on the same plate. The in-vitro anti-HIV activity data, which were determined within the context of a National Cancer Institute Developmental Therapeutics Program, are summarized in the following table.

[1] = system: T4 lymphocytes (cell line: CEM-SS); assay: Toxicity control: uninfected T4 lymphocytes (CEM-SS) with compound only, XTT; format: cell-based; conditions: 6 days
Method: as §1

With `CCCCCCCCCCCCCCCC(=O)Nc1ccn(C2CCC(COP(=O)(O)OCC(COP(=O)(O)OCC3OC(n4cc(C)c(=O)[nH]c4=O)CC3N=[N+]=[N-])OC(=O)CCCCCCCCCCCCCCC)O2)c(=O)n1` (racemic) [NSC 704532-F/1, N^4-palmitoyl-2′,3′-dideoxycytidylyl-(5′→1)-2-O-palmitoyl-rac-glycerylyl-(3→5′)-3′-azido-2′,3′-dideoxythymidine] the “Percent of control infected” value (HIV; Dose 1.00 * 10^−6 molar) was 113.49%, the Percent protection (HIV; Dose 1.00 * 10^−6 molar, HIV-infected CEM-SS) was 114.05% and the “Percent of control infected” value (HIV; Dose 1.00 * 10^−7 molar) was 106.07%. For the same molecule, the Percent protection (HIV; Dose 1.00 * 10^−7 molar, HIV-infected CEM-SS) was 106.32%, the “Percent of control infected” value (HIV; Dose 1.00 * 10^−8 molar) was 23.62% and the Percent protection (HIV; Dose 1.00 * 10^−8 molar, HIV-infected CEM-SS) was 20.44%. For the same molecule, the “Percent of control infected” value (HIV; Dose 1.00 * 10^−9 molar) was 4.21%, the Percent protection (HIV; Dose 1.00 * 10^−9 molar, HIV-infected CEM-SS) was 0.22% and the “Percent of control infected” value (HIV; Dose 3.16 * 10^−7 molar) was 104.16%. For the same molecule, the Percent protection (HIV; Dose 3.16 * 10^−7 molar, HIV-infected CEM-SS) was 104.33%, the “Percent of control infected” value (HIV; Dose 3.16 * 10^−8 molar) was 80.22% and the Percent protection (HIV; Dose 3.16 * 10^−8 molar, HIV-infected CEM-SS) was 79.40%. The “Percent of control infected” value (HIV; Dose 3.17 * 10^−9 molar) was 14.25%, the Percent protection (HIV; Dose 3.17 * 10^−9 molar, HIV-infected CEM-SS) was 10.68% and the “Percent of control infected” value (HIV; Dose 3.17 * 10^−10 molar) was 5.80%. The Percent protection (HIV; Dose 3.17 * 10^−10 molar, HIV-infected CEM-SS) was 1.88%, the EC50 (HIV; HIV-infected CEM-SS, read-out: 50% protection from infection (EC5.)) was 17.9 nM and the IC50 ([1]; read-out: 50% cell growth (IC50)) was > 1000 nM. For the same molecule, the “Percent of control uninfected” value ([1]; Dose 1.00 * 10^−6 molar) was 119.96%, the “Percent of control uninfected” value ([1]; Dose 1.00 * 10^−7 molar) was 112.26% and the “Percent of control uninfected” value ([1]; Dose 1.00 * 10^−8 molar) was 99.64%. For the same molecule, the “Percent of control uninfected” value ([1]; Dose 1.00 * 10^−9 molar) was 105.03%, the “Percent of control uninfected” value ([1]; Dose 3.16 * 10^−7 molar) was 112.02% and the “Percent of control uninfected” value ([1]; Dose 3.16 * 10^−8 molar) was 104.96%. For the same molecule, the “Percent of control uninfected” value ([1]; Dose 3.17 * 10^−9 molar) was 101.22% and the “Percent of control uninfected” value ([1]; Dose 3.17 * 10^−10 molar) was 105.43%.
